In assay [1] the test system is INSR. Particulars: read-out: Crizotinib IC50 Biochemical; ref Cui et al., 2011; cited from earlier work.
The subject of assay [2] is TRKB. Particulars: read-out: Live Cell IC50 Phospho Elisa; ref Cui et al., 2011; cited from earlier work.
The target in assay [3] is full-length kinase/Nluc fusion proteins (Homo sapiens, UniProt P51812). The assay can be described thus: Apparent affinity (EC50) of energy transfer probes by titration onto live HEK293 cells expressing kinase/Nluc fusions (Table S1). The following applies: RPS6KA3 (NP_004577), Nluc orientation N; read-out: Probe EC50. It counts as binding.
Chain of full-length kinase/Nluc fusion proteins (P51812 whole entry, the tested form may be a part): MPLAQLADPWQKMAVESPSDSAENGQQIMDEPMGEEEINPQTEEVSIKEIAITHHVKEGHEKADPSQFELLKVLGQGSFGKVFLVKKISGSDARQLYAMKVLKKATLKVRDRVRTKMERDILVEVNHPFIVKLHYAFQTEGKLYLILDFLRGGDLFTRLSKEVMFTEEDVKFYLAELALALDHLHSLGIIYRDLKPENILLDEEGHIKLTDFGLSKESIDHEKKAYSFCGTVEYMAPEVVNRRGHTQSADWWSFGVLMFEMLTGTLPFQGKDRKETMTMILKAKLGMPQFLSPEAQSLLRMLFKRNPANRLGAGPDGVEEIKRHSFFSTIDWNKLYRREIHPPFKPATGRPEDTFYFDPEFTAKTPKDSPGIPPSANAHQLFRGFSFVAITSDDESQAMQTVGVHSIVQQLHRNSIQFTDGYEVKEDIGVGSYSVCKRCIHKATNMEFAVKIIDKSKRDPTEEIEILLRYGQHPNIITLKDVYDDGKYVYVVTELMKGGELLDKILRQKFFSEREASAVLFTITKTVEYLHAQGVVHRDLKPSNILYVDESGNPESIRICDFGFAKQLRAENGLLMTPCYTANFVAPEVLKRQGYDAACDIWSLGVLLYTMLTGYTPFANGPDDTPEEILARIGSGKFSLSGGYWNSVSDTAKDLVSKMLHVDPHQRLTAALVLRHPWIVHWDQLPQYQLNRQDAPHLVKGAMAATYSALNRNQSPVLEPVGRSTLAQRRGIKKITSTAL

By pIC50 is commonly meant the IC50 on a negative log10 scale, so that one unit is a factor of ten. As usually defined, the pEC50 is the negative decadic logarithm of the EC50, by convention in mol/L.

pEC50, pIC50: −log10 of the molar value.

As to `C[C@@H](Oc1cc(-c2cnn(C3CCNCC3)c2)cnc1N)c1c(Cl)ccc(F)c1Cl` [Crizotinib], the pIC50 in assay [1] was […]; in assay [2], […]. On to `CNC(=O)c1ccccc1Nc1nc(Nc2ccc(N3CCN(C(=O)CCOCCOCCOCCOCCNC(=O)CCc4ccc5n4[B-](F)(F)[N+]4=C(c6ccc[nH]6)C=CC4=C5)CC3)cc2)ncc1Cl` [Energy Transfer Probe 5, 2-((2-((4-(4-(1-amino-3,6,9,12-tetraoxapentadecan-15-oyl)piperazin-1-yl)phenyl)amino)-5-chloropyrimidin-4-yl)amino)-N-methylbenzamide-NanoBRET 590], for which the pEC50 in assay [3] was 6.70.
